Data as given in ChEMBL document CHEMBL5465560, “Selectivity Literature for EUbOPEN Chemogenomic Library” (2024).

Assays:
[1] = molecular target: T1, Serine/threonine-protein kinase D1 (Homo sapiens) (UniProt Q15139); test: Selectivity interaction (KinomeScan (DiscoverX)) EUB0000695a PRKD1; conditions: at 100 nM
T1 sequence (whole entry): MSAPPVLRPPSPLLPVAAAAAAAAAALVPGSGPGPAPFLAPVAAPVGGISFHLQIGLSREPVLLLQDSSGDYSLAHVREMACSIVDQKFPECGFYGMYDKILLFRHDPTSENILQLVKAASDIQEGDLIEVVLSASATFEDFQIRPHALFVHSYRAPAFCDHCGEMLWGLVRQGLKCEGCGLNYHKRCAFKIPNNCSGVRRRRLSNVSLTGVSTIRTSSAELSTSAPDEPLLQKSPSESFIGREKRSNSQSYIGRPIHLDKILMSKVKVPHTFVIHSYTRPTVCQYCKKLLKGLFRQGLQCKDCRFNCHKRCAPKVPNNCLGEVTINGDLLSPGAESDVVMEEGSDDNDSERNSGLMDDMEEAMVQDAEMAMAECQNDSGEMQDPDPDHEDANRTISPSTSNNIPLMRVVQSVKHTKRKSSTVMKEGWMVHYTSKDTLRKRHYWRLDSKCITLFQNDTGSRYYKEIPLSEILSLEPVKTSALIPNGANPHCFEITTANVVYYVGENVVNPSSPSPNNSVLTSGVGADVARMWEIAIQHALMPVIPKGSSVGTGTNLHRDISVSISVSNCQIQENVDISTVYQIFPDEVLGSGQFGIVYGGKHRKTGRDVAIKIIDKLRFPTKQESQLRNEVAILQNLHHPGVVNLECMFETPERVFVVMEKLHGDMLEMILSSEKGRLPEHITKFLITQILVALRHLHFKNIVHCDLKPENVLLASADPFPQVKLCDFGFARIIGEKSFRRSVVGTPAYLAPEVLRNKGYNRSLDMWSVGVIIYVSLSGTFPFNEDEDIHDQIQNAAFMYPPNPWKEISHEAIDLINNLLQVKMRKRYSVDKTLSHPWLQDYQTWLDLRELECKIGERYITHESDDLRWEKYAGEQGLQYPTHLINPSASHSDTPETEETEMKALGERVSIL

[2] = molecular target: Mitogen-activated protein kinase kinase kinase kinase 5 (Homo sapiens) (UniProt Q9Y4K4); test: Selectivity interaction (KinomeScan (DiscoverX)) EUB0001079a MAP4K5; conditions: at 1 µM
Sequence of Mitogen-activated protein kinase kinase kinase kinase 5 (Homo sapiens) (Q9Y4K4 whole entry, looked up): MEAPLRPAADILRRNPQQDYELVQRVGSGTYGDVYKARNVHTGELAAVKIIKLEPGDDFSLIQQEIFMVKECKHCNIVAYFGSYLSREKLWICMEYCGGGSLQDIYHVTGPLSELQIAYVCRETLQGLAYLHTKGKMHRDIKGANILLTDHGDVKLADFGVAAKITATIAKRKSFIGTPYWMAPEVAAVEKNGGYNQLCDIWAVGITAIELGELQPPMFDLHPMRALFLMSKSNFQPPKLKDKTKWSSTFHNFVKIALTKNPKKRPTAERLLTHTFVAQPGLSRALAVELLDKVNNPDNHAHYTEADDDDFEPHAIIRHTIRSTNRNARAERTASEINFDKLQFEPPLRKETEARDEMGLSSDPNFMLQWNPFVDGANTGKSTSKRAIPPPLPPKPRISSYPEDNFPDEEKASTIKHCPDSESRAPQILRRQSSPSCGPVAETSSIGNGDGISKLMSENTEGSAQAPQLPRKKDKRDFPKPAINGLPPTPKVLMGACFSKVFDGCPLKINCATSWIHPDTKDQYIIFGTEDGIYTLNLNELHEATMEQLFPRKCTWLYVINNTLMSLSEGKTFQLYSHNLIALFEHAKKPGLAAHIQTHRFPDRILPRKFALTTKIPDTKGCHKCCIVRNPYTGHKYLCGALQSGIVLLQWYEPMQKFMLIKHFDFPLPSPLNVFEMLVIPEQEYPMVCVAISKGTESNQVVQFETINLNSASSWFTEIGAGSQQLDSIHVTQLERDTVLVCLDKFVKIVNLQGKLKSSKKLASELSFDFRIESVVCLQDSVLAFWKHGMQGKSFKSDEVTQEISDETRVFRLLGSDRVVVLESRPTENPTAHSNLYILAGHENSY

[3] = molecular target: ALK tyrosine kinase receptor (Homo sapiens, UniProt Q9UM73); test: Selectivity interaction (Kinase panel (Z-LYTE Assay)) EUB0001632a ALK; conditions: at 10 µM
Sequence of ALK tyrosine kinase receptor (Q9UM73 19-1620 limits assumed): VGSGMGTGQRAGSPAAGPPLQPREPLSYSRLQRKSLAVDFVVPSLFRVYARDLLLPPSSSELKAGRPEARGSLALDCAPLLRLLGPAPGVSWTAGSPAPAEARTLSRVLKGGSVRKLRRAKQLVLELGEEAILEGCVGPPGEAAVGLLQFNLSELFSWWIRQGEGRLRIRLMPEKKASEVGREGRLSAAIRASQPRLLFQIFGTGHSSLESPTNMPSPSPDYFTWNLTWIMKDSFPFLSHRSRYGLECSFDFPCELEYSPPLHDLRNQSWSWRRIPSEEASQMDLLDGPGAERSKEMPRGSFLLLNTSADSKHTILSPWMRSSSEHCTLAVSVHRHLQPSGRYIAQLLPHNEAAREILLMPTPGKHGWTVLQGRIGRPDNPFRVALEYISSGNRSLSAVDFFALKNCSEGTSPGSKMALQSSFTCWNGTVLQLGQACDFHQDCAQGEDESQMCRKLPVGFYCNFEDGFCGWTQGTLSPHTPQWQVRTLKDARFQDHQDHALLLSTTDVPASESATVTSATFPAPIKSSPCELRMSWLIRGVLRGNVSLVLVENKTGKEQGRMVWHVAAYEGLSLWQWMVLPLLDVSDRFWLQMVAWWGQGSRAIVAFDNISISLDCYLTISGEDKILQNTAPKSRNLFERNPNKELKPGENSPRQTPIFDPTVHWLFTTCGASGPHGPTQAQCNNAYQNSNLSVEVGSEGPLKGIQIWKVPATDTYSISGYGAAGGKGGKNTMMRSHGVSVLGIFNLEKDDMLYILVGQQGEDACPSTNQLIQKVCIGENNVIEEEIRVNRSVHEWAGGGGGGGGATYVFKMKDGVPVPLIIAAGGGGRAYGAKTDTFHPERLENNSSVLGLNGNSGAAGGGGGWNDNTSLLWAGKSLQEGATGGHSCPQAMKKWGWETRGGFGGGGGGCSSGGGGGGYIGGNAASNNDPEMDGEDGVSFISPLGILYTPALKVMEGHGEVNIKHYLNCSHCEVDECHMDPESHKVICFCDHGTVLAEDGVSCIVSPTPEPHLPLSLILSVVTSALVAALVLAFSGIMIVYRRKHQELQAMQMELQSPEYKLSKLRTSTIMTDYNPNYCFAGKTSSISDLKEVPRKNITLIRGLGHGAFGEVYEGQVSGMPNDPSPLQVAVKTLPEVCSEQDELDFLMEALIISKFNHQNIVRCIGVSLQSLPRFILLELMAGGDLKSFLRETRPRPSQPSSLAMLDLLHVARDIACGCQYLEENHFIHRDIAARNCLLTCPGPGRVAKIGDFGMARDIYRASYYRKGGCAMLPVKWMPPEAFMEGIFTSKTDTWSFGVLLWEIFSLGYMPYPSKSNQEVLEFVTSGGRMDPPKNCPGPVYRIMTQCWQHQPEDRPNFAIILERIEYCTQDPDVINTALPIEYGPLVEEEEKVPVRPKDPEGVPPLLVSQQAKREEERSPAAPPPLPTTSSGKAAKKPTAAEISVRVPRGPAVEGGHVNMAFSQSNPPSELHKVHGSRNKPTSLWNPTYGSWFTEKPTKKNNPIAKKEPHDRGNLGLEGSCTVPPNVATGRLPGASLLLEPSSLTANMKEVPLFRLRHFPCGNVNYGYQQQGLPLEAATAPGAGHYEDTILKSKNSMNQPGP

[4] = molecular target: Ribosomal protein S6 kinase alpha-1 (Homo sapiens, UniProt Q15418); test: Selectivity interaction (KinomeScan (DiscoverX)) EUB0001619a RPS6KA1; conditions: at 1 µM
Sequence of Ribosomal protein S6 kinase alpha-1 (Q15418 whole entry): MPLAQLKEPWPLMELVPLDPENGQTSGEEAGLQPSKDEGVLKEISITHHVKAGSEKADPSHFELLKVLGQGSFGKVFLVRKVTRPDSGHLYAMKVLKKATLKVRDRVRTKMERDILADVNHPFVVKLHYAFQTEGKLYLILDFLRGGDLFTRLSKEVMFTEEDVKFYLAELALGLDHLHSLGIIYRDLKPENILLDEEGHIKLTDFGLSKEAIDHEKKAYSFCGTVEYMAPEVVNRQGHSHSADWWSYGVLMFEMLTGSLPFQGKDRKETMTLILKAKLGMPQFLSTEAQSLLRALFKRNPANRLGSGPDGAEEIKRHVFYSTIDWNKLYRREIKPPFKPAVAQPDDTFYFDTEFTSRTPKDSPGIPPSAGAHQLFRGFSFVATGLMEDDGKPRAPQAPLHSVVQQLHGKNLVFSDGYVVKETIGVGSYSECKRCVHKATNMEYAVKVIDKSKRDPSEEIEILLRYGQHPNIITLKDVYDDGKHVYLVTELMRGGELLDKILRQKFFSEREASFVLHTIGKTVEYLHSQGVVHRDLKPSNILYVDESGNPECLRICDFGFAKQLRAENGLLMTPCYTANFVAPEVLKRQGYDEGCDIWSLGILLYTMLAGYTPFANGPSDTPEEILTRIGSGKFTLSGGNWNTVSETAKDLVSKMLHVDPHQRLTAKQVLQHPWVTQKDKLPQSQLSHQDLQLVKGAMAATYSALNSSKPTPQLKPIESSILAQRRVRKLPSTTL

[5] = molecular target: Macrophage colony-stimulating factor 1 receptor (Homo sapiens) (UniProt P07333); test: Selectivity interaction (KinomeScan (DiscoverX)) EUB0000607a CSF1R; conditions: at 10 µM
Sequence of Macrophage colony-stimulating factor 1 receptor (Homo sapiens) (P07333 whole entry): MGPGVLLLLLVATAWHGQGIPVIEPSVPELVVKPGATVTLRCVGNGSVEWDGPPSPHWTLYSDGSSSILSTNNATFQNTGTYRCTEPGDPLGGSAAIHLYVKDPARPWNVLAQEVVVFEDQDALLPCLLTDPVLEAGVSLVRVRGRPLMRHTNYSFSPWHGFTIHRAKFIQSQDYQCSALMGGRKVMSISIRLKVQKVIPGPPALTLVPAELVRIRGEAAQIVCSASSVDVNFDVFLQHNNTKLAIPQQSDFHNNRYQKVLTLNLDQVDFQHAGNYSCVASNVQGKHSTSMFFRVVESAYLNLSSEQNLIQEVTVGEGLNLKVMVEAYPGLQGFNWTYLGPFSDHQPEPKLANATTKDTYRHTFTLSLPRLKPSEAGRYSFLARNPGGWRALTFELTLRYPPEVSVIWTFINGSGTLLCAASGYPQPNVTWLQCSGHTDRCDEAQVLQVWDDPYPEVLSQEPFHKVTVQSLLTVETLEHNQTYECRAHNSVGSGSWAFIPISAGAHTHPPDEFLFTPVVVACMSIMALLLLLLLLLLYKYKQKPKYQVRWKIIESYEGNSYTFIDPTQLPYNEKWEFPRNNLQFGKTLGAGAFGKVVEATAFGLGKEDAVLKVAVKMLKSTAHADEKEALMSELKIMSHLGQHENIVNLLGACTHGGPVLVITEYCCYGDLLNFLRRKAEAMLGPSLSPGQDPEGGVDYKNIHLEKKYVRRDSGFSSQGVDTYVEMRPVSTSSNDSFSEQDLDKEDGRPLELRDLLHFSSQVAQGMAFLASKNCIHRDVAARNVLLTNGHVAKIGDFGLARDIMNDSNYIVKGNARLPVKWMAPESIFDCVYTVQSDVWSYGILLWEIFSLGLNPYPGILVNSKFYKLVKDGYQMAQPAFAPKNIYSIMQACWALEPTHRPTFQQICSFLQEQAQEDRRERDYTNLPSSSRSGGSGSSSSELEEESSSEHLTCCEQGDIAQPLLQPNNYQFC

[6] = molecular target: T2, Serine/threonine-protein kinase DCLK1 (Homo sapiens) (UniProt O15075); test: Selectivity interaction (Kinase panel (DSF assay)) EUB0001558a DCLK1
T2 sequence (whole entry): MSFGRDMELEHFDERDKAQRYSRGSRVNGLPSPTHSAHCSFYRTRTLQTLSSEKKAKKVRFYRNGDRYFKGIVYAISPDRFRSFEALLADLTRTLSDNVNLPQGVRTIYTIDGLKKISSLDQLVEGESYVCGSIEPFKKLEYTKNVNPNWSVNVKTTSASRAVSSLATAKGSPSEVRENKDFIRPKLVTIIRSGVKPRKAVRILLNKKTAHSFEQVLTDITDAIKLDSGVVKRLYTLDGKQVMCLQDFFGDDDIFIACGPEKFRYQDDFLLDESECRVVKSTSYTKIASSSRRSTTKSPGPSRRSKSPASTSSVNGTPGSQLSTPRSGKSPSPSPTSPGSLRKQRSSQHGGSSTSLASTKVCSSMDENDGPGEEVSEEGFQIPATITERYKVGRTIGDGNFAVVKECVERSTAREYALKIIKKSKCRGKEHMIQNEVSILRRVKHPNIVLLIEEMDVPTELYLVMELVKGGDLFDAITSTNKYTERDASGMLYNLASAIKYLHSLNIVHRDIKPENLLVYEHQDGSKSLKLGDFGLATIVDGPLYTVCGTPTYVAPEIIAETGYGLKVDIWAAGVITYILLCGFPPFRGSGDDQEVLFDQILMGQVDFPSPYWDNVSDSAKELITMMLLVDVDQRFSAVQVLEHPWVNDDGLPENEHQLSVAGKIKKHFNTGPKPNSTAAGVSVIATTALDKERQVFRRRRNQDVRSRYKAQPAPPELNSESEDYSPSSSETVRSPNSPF

[7] = molecular target: Serine/threonine-protein kinase PAK 3 (Homo sapiens) (UniProt O75914); test: Selectivity interaction (Kinase panel (Invitrogen)) EUB0000639a PAK3; conditions: at 200 nM
Sequence of Serine/threonine-protein kinase PAK 3 (Homo sapiens) (O75914 whole entry, looked up): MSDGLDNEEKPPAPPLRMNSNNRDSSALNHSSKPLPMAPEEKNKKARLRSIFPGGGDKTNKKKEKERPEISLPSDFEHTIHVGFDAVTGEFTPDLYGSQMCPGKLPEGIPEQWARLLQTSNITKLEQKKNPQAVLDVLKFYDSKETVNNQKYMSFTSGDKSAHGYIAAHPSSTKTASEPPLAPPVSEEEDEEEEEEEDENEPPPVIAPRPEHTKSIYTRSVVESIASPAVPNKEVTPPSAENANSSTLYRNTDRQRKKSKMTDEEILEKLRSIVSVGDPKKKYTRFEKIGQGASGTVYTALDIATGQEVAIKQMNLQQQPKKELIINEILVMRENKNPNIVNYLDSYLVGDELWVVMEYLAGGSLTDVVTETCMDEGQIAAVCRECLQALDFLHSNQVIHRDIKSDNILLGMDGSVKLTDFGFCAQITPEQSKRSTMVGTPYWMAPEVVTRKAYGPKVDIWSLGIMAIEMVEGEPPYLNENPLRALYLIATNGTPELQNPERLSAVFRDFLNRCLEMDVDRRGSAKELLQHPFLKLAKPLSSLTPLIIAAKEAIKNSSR

[8] = molecular target: T3, Inhibitor of nuclear factor kappa-B kinase subunit epsilon (Homo sapiens) (UniProt Q14164); conditions: at 10 µM
T3 sequence (whole entry): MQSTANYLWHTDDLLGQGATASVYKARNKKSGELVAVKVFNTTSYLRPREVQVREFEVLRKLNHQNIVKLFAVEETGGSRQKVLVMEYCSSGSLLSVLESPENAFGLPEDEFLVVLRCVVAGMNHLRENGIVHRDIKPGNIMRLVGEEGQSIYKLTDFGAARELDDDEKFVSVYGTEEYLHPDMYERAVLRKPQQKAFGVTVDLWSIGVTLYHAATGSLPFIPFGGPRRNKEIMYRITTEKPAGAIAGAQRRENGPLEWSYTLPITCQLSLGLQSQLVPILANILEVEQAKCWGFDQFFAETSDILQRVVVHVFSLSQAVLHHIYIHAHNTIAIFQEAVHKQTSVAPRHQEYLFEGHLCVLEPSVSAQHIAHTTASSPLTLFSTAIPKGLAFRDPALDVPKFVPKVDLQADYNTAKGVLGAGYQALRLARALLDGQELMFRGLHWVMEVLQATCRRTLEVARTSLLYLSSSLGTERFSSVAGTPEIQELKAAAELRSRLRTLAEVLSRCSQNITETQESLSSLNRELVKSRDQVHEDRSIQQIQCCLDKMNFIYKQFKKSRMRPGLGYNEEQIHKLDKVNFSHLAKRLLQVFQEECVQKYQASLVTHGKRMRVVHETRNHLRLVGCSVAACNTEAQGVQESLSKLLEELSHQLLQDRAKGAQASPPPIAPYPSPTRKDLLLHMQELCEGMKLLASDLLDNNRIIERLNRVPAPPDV

Cc1cc(F)c(C(=O)Nc2cccc(-c3nncn3C(C)C)n2)cc1-n1cnc(C2CC2)c1
% of control [1]: 8.7%

Nc1cnc(N2CCc3cc(S(=O)(=O)Nc4c(F)cc(Cl)cc4F)cc(N4CCCC4=O)c32)nc1 [TP-020n]
% of control [2]: 73%

Cn1cc(-n2cnc3c(NCc4nc5cc(Cl)c(Cl)cc5[nH]4)nc(N4CCOCC4)nc32)cn1
% of control [3]: -0.105%

N#Cc1cccc(-c2c[nH]c3ncnc(N4CCOCC4)c23)c1
% of control [4]: 27%

CNC(=O)Nc1ccc(-c2nc(N3CC4CCC(C3)O4)c3cnn(C4CCC5(CC4)OCCO5)c3n2)cc1
% of control [5]: 100%

CC(C)(O)[C@H](F)CN1Cc2cc(NC(=O)c3cnn4cccnc34)c(N3CCOCC3)cc2C1=O
dTM [6]: -1 K

CC[C@@H]1[C@H](F)C(=O)N[C@@H]1COc1nccc2cc(C(N)=O)c(OC)cc12 [ZIMLOVISERTIB]
% of inhibition [7]: 0.439%

CCN(CC)CCCCNc1ncc2cc(-c3cc(OC)cc(OC)c3)c(NC(=O)NC(C)(C)C)nc2n1
% of control [8]: 100%
